# From patent US20260272889A1, “COGNITIVE FUNCTION-IMPROVING AGENT AND PHARMACEUTICAL COMPOSITION FOR TREATING OR PREVENTING COGNITIVE DYSFUNCTION” (TOHOKU UNIVERSITY, priority 2022, published 2026)
# How the values were obtained:
# [1] = tested on: schizophrenic model (MK-801) mice; experiment: Spine density analysis of prefrontal cortex pyramidal cells, Example 2; format: in vivo, C57BL/6J mice
# Experimental: (§1) Inbred C57BL/6J (B6J) mice were purchased from Charles River Laboratories Japan, Inc. (Kanagawa, Japan). The mice were housed four by four in standard cages and reared on a 12-hour light/dark cycle (lights on at 8:00 and off at 20:00) in a room where temperature and humidity were controlled. The mice had free access to standard laboratory chow MF (ORIENTAL YEAST Co., Ltd., Tokyo, Japan) and water. No special environmental enrichment was provided in the home cage. Behavioral testing was performed using males from 10:00 to 18:00.
# (§2) MK-801 (FUJIFILM Wako Pure Chemical Corporation, Osaka, Japan) was diluted with physiological saline to a concentration of 1 mg/ml to prepare a stock solution, which was stored at −80° C. The MK-801 stock solution (1 mg/ml) was then further diluted with physiological saline to 20 μg/ml and stored at −20° C. as a solution for administration. The MK-801 administration solution (20 μg/ml) was thawed on the day of administration and used for administration to mice. The MK-801 administration solution (20 μg/ml) was used within one week after freezing. MK-801 is an antagonist of an NMDA (glutamatergic N-methyl-D-aspartate) receptor. Chronic administration of MK-801 to mice causes a decrease in spine density and abnormal behavior similar to schizophrenia in mice. Mice to which MK-801 was chronically administered were used as a disease model of schizophrenia. Mice to which physiological saline was administered instead of MK-801 were used as a healthy model.
# (§3) Pemafibrate (Toronto Research Chemicals, Tronto, Canada) was diluted with DMSO to a concentration of 30 mg/ml and stored as a stock solution at −80° C. On the day of administration, the pemafibrate stock solution (30 mg/ml) was diluted with corn oil (Sigma-Aldrich, USA) to a concentration of 0.1 mg/ml and used for administration to mice. As a control, a DMSO solution prepared by diluting DMSO in corn oil was used for administration to mice (DMSO:corn oil=1:300).
# (§4) MK-801 (0.2 mg/kg/day) or physiological saline was intraperitoneally administered to 6-week-old C57BL/6J mice (males) once a day for 2 weeks. […]
# [2] = tested on: schizophrenic model (MK-801) mice; experiment: Novel object recognition test (NORT), MK-801 schizophrenic model, Example 2; format: in vivo, C57BL/6J mice
# Experimental: as §1, §2, §3, §4
# [3] = tested on: mouse microglial cell line MG6; experiment: qRT-PCR of cytokine expression in microglial cell line MG6 (Example 1); format: cell-based; conditions: MG6 cells, 0.03 μM or 0.1 μM, 24 hours, qRT-PCR normalized with Gapdh
# Experimental: A mouse microglial cell line MG6 was used for experiments. MG6 was seeded on a 12-well plate at 5×10^4 cells/well using a DMEM (high glucose) medium containing 10% of FBS, 10 μg/ml of insulin, and 0.1 mM of 2-mercaptoethanol. The seeded MG6 was cultured in an incubator at 37° C. and a CO2 concentration of 5%. After 24 hours from the start of culture, drugs were added as follows. First, pemafibrate as the PPARα agonist was diluted with DMEM (high glucose) medium to have a final concentration of 0.03 μM or 0.1 μM using dimethylsulfoxide (DMSO) as a solvent. Then, the total amount of the medium of the well in which MG6 was seeded was replaced with the medium containing 0.03 μM or 0.1 μM of pemafibrate, or a medium to which DMSO was added as a control. Cells were collected additional 24 hours after the medium replacement.
# Total RNA was extracted from the collected cells using RNeasy Mini kit (Qiagen). Reverse transcription of the total RNA was performed using GeneAce cDNA Synthesis Kit (FUJIFILM Wako Pure Chemical Corporation). THUNDERBIRD (trade name) SYBR qPCR Mix (Toyobo) was used to perform qRT-PCR by ABI7500 Real Time PCR system (Thermo Fisher Scientific). Relative gene expression was calculated by a ΔCt method and normalized with Gapdh. The following primers were used.
# [4] = tested on: schizophrenic model (MK-801) mice; experiment: Spine density analysis, examination of therapeutic method, Example 3; format: in vivo, C57BL/6J mice
# Experimental: (§5) Animals and reagents the same as in Example 2 were used.
# (§6) MK-801 (0.2 mg/kg/day) or physiological saline was intraperitoneally administered to 6-week-old C57BL/6J mice (males) once a day for 2 weeks. Mice to which MK-801 was administered and mice to which physiological saline was administered were each divided into two groups, to which pemafibrate (0.3 mg/kg/day) or solvent (DMSO solution) was orally administered once a day for one week.
# (§7) Sampling for spine density analysis was performed after completion of NORT. Spine density analysis was performed using a group of 6 mice. Spine density analysis was performed in a manner similar to that in Example 2.
# (§8) In the examination of the therapeutic method, a schizophrenic model in which MK-801 was administered to 6-week-old mice for 2 weeks was used (see upper parts in FIGS. 9 and 10). In the healthy model, physiological saline (saline) was administered instead of MK-801.
# [5] = tested on: schizophrenic model (MK-801) mice; experiment: NORT, examination of prophylaxis, Example 3; format: in vivo, C57BL/6J mice; conditions: FIG. 11
# Experimental: as §5
# (§9) Examination of prophylaxis: Pemafibrate (0.3 mg/kg/day) or solvent (DMSO solution) was orally administered to 6-week-old C57BL/6J mice (males) once a day for 2 weeks. Mice to which pemafibrate was administered and mice to which DMSO was administered were each divided into two groups, to which MK-801 (0.2 mg/kg/day) or physiological saline was intraperitoneally administered once a day for two weeks.
# (§10) NORT was performed using a group of 12 mice. NORT was performed in a manner similar to that in Example 1.
# (§11) In the examination of the prophylaxis, pemafibrate was administered to 6-week-old mice for 2 weeks, and then MK-801 was administered thereto for 2 weeks (see upper parts in FIG. 11 and FIG. 12). In the healthy model, physiological saline (saline) was administered instead of MK-801.
# [6] = tested on: schizophrenic model (MK-801) mice; experiment: Spine density analysis, examination of prophylaxis, Example 3; format: in vivo, C57BL/6J mice; conditions: FIG. 12
# Experimental: as §5, §9, §7, §11
# [7] = tested on: schizophrenic model (MK-801) mice; experiment: NORT, examination of therapeutic method, Example 3; format: in vivo, C57BL/6J mice; conditions: FIG. 9
# Experimental: as §5, §6, §10, §8
# [8] = schizophrenic model (MK-801(+)), pemafibrate 0.3 mg/kg/day oral 1 week, FIG. 8
# [9] = prophylaxis: pemafibrate 0.3 mg/kg/day oral 2 weeks, then MK-801 2 weeks, group (4)
Compound,"spine density compared with healthy model (saline) ([1]; MK-801 0.2 mg/kg/day i.p. 2 weeks, no pemafibrate, FIG. 7)","NORT dwell time, new object vs familiar object ([2]; MK-801 0.2 mg/kg/day i.p. 2 weeks, no pemafibrate, FIG. 5)","spine density compared with healthy model [1, 8]","spine density compared with pemafibrate non-administration group of schizophrenic model [1, 8]","expression of inflammatory cytokines (IL-1b, Tnfa) ([3]; FIG. 1)","expression of anti-inflammatory cytokines (IL-4, IL-10) ([3]; FIG. 2)","NORT dwell time around new object compared with familiar object ([2]; healthy model (MK-801(-)), pemafibrate 0.3 mg/kg/day oral 1 week, FIG. 6)","NORT dwell time around new object compared with familiar object ([2]; schizophrenic model (MK-801(+)), pemafibrate 0.3 mg/kg/day oral 1 week after MK-801, FIG. 6)","effect on spine density of schizophrenic model ([4]; therapeutic: group (4) vs non-administration group (3), FIG. 10)","spine density compared with healthy models ([4]; therapeutic: schizophrenic model group (4), pemafibrate 0.3 mg/kg/day oral 1 week after MK-801, FIG. 10)","NORT dwell time around new object compared with familiar object ([5]; prophylaxis: healthy models (saline), with pemafibrate)","NORT dwell time around new object compared with familiar object [5, 9]",decrease in spine density caused by MK-801 ([6]; prophylaxis: group (4) vs non-administration group (3)),"spine density compared with healthy models [6, 9]","NORT dwell time around new object compared with familiar object ([7]; therapeutic: healthy models (saline), with pemafibrate)","NORT dwell time around new object compared with familiar object ([7]; therapeutic: schizophrenic model group (4), pemafibrate 0.3 mg/kg/day oral 1 week after MK-801 2 weeks)"
C[C@]12N[C@H](Cc3ccccc31)c1ccccc12 [MK-801],significantly reduced,no significant difference,–,–,–,–,–,–,–,–,–,–,–,–,–,–
CC[C@@H](Oc1cccc(CN(CCCOc2ccc(OC)cc2)c2nc3ccccc3o2)c1)C(=O)O [pemafibrate],–,–,no significant difference,significantly increased,inhibits the expression,inhibits the expression,significantly longer,significantly longer,restores the spine density,no significant difference,significantly longer,significantly longer,suppressed,no significant difference,significantly longer,significantly longer
